Measured values from paper PMC4286194 (Biochemical Journal, 2015).

What was measured:
Format in all cases: cell-based, mouse
[1] = tested on: Bone-marrow-derived macrophages; assay: IL-10 secretion (BIOPLEX) in LPS-stimulated macrophages; details: 10 μM; LPS-stimulated
Protocol: The concentration of TNFα, IL-6, IL-10 and IL-12p40 in cell-free culture supernatants were measured using the Bio-Plex Pro Assay system (Bio-Rad).

[2] = tested on: Bone-marrow-derived macrophages; assay: TLR signalling immunoblots (MAPKs, MSK1/2, CREB, IKKs, TBK1); details: 3 μM bosutinib, 0.3 μM dasatinib or 0.5 μM HG-9-91-01
Protocol: RAW264.7 cells were cultured in DMEM containing 10% FBS, 2 mM glutamine and penicillin and streptomycin. […] Cells were treated for 1 h with or without inhibitors and then stimulated for up to 24 h with either 1 μg/ml Pam3CSK4 or 100 ng/ml LPS.
Cells were extracted in lysis buffer [50 mM Tris/HCl, pH 7.4, 1 mM EDTA, 1 mM EGTA, 50 mM NaF, 5 mM sodium pyrophosphate, 10 mM sodium β-glycerol 1-phosphate, 1 mM DTT, 1 mM sodium orthovanadate, 0.27 M sucrose, 1% (v/v) Triton X-100, 1 μg/ml aprotinin, 1 μg/ml leupeptin and 1 mM PMSF]. Cell extracts were clarified by centrifugation and protein concentrations were determined using the Bradford assay. To immunoprecipitate endogenous CRTC3, 1 mg of cell extract was incubated with 5 μg of anti-CRTC3 [13] covalently cross-linked on to Protein G–Sepharose. Immune complexes were washed three times with lysis buffer, eluted in 1% SDS and separated by SDS/PAGE. To detect proteins in cell lysates, 20 μg of protein extract was separated by SDS/PAGE. After transfer to PVDF membranes, proteins were detected by immunoblotting and visualized by treating the blots with ECL (GE Healthcare) followed by autoradiography.

[3] = tested on: Bone-marrow-derived macrophages; assay: CREB-dependent gene transcription (qPCR); details: macrophages
Protocol: mRNA was extracted from cells using the MicroElute Total RNA kit following the manufacturers’ instructions (Omega Bio-Tek). cDNA was generated from 0.5 μg of total RNA using the iScript cDNA synthesis kit and quantified by quantitative real-time PCR (qPCR) using the SsoFast EvaGreen Supermix on a CFX384 real-time system (Bio-Rad Laboratories). The relative expression of each gene was calculated from CT values using the Pfaffl method and was normalized against the mRNA levels of housekeeping genes including 18S RNA and GAPDH. Results are reported relative to untreated control cells, which were set to 1.

Row | SMILES | IL-10 production [1] | TLR-stimulated phosphorylation of ERK1/2, JNK1/2, p38α/β MAPKs, MSK1/2, IKKα/β, TBK1 and their direct substrates [2] | CREB-dependent gene transcription and IL-10 production [3]
1 | CCN(CC)CCNC(=O)c1c(C)[nH]c(/C=C2\C(=O)Nc3ccc(F)cc32)c1C [Sunitinib, sunitinib] | failed to elevate IL-10 production | – | –
2 | COc1ccc(N(C(=O)Nc2c(C)cccc2C)c2cc(Nc3ccc(N4CCN(C)CC4)cc3)ncn2)c(OC)c1 [HG-9-91-01] | – | occurred normally | –
3 | COc1cc2/c(=N/c3ccc(Br)cc3F)nc[nH]c2cc1OCC1CCN(C)CC1 [Vandetinib, vandetinib] | failed to elevate IL-10 production | – | –
4 | Cc1ccc(NC(=O)c2ccc(CN3CCN(C)CC3)cc2)cc1Nc1nccc(-c2cccnc2)n1 [Imatinib, imatinib] | failed to elevate IL-10 production | – | fail to induce CREB-dependent gene transcription and to elevate IL-10 production
5 | CS(=O)(=O)CCNCc1ccc(-c2ccc3ncnc(Nc4ccc(OCc5cccc(F)c5)c(Cl)c4)c3c2)o1 [Lapatinib, lapatinib] | failed to elevate IL-10 production | – | –
6 | C#Cc1cccc(Nc2ncnc3cc(OCCOC)c(OCCOC)cc23)c1 [Erlotinib, erlotinib] | failed to elevate IL-10 production | – | –
7 | COc1cc2ncnc(Nc3ccc(F)c(Cl)c3)c2cc1OCCCN1CCOCC1 [Gefitinib, gefitinib] | failed to elevate IL-10 production | – | –
